# Assay results from publication PMC10504561 (Plant Communications, 2023).
# Tests used:
# Assay in all cases: LC-DAD of product
# Type in all cases: biochemical
# Settings in all cases: S-adenosyl-L-methionine co-substrate, pH 7.5, 28 °C, 2 h
# [1] = target: T1, Gmγ-TMT1 (Glycine max, UniProt A0A4D6BQA3)
# T1 sequence (A0A4D6BQA3 1-296): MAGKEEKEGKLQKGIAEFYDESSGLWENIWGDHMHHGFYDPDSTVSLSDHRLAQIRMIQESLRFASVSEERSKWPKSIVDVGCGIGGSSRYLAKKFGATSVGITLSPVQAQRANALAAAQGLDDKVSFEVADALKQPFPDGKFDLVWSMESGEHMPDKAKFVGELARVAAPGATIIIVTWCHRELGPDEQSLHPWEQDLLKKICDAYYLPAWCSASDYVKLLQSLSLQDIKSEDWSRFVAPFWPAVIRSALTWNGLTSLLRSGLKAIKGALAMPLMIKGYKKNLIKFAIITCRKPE
# [2] = target: T2, Gmγ-TMT3 (Glycine max, UniProt A0A4D6BMW5)
# T2 sequence (A0A4D6BMW5 1-302): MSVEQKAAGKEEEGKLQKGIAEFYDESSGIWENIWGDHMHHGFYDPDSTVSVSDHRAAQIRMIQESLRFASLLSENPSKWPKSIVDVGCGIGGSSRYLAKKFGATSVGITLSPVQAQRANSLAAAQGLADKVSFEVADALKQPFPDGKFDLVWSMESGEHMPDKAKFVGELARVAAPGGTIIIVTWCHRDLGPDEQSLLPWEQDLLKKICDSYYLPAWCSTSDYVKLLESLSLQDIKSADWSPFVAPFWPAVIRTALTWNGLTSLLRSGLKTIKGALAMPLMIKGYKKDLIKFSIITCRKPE
# [3] = target: T3, Gmγ-TMT2 (Glycine max, UniProt Q56GA2)
# T3 sequence (Q56GA2 51-350): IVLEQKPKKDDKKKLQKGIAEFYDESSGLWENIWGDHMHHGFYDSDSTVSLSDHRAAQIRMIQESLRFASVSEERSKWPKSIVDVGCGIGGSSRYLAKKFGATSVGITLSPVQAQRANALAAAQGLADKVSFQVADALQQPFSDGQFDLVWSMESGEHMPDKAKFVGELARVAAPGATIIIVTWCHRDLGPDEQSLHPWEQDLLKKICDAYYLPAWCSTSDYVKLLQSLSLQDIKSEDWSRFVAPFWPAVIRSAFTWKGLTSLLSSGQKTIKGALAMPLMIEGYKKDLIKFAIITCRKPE
smiles,measurement,setting,value
Cc1c(O)cc2c(c1C)O[C@](C)(CCC[C@H](C)CCC[C@H](C)CCCC(C)C)CC2 [γ-T],activity,[1],Gmγ-TMT3 had three-fold higher activity toward γ-T than Gmγ-TMT1 and Gmγ-TMT2
same,activity,[2],Gmγ-TMT3 had three-fold higher activity toward γ-T than Gmγ-TMT1 and Gmγ-TMT2
same,activity,[3],Gmγ-TMT3 had three-fold higher activity toward γ-T than Gmγ-TMT1 and Gmγ-TMT2
